The values that follow come from article doi:10.1101/2021.12.13.472376v1 (bioRxiv, 2021).

For one data set, the system named is GBM. To be noted: GBM patients treated with radiotherapy combined with TMZ; ref Stupp et al., 2005; cited from earlier work.
The nature of data set [1]: Water solubility / dissolution of the peptide. It counts as physicochemical.

On to `Cn1nnc2c(C(N)=O)ncn2c1=O` [TMZ], for which, in the data set with GBM, the median survival is 14.6 months.
As to YLGASVPSPDPLEPTGGTALDWSWLQTE [MTL-NBD], the water solubility result in data set [1] is recorded as “good”. In data set [1] (1 mg in 200 μL normal saline or DPBS), the “dissolution of 1 mg peptide in 200 μL normal saline or DPBS” value is on record as “completely dissolve”.
For the compound RQIKIWFQNRRMKWGGTALDWSWLQTE [NBD], the water solubility result in data set [1] is “poor”. Also, the “dissolution of 1 mg peptide in 1000 μL 10% DMSO DPBS” value in data set [1] (1 mg in 1000 μL 10% DMSO DPBS, only a mixture with loose precipitation obtained) is recorded as “could not completely dissolve”.
